What was measured:
Test in all cases: Oligonucleotide microarray gene expression after TSA (1 μM, 24 h) vs mock
Type in all cases: cell-based, human
[1] = test system: Hs766T pancreatic cancer cell line
From the text: (§1) These include a large panel of novel targets for silencing by histone deacetylation including several known tumor suppressor genes or cell cycle-regulatory genes (ING1, p57KIP2, CHES1, CHFR, GADD45B, and others).

[2] = test system: AsPC1 pancreatic cancer cell line
From the text: as §1

[3] = test system: Panc1 pancreatic cancer cell line
From the text: as §1

## CC(/C=C/C(=O)NO)=C\[C@@H](C)C(=O)c1ccc(N(C)C)cc1 [TSA, trichostatin A]
[1]; ADM, Hs766T
  Fold-change after TSA treatment: 1.86 fold
[1]; ANGPT1, Hs766T
  Fold-change after TSA treatment: 6.72 fold
[1]; AREG, Hs766T
  Fold-change after TSA treatment: 2.02 fold
[1]; ATF3, Hs766T
  Fold-change after TSA treatment: 1.73 fold
[1]; BIK, Hs766T
  Fold-change after TSA treatment: 2.35 fold
[1]; CACNA1G, Hs766T
  Fold-change after TSA treatment: 2.72 fold
[1]; CAPN5, Hs766T
  Fold-change after TSA treatment: 1.06 fold
[1]; CDH8, Hs766T
  Fold-change after TSA treatment: −1.11 fold
[1]; CDKN1C, Hs766T
  Fold-change after TSA treatment: 6.57 fold
[1]; CGR11, Hs766T
  Fold-change after TSA treatment: 1.82 fold
[1]; CHES1, Hs766T
  Fold-change after TSA treatment: −1.11 fold
[1]; CHFR, Hs766T
  Fold-change after TSA treatment: 8 fold
[1]; CLDN15, Hs766T
  Fold-change after TSA treatment: −1.81 fold
[1]; EDR1, Hs766T
  Fold-change after TSA treatment: −1.26 fold
[1]; EGR4, Hs766T
  Fold-change after TSA treatment: 6.49 fold
[1]; EREG, Hs766T
  Fold-change after TSA treatment: 7.43 fold
[1]; GADD45B, Hs766T
  Fold-change after TSA treatment: 2.01 fold
[1]; GAGE1, Hs766T
  Fold-change after TSA treatment: 14.57 fold
[1]; GAGE2, Hs766T
  Fold-change after TSA treatment: 432.64 fold
[1]; GAGE3, Hs766T
  Fold-change after TSA treatment: 184.93 fold
[1]; GAGE4, Hs766T
  Fold-change after TSA treatment: 234.36 fold
[1]; GAGE6, Hs766T
  Fold-change after TSA treatment: 237.45 fold
[1]; GAGE7B, Hs766T
  Fold-change after TSA treatment: 331.97 fold
[1]; H1 historic family, member 2 (BC002649), Hs766T
  Fold-change after TSA treatment: 5.8 fold
[1]; HEP27, Hs766T
  Fold-change after TSA treatment: 1631 fold
[1]; HMOX1, Hs766T
  Fold-change after TSA treatment: 2.56 fold
[1]; HPSE, Hs766T
  Fold-change after TSA treatment: −1.12 fold
[1]; Hs766T
  transcripts with marked induction: 349 transcripts
  transcripts with marked induction, share of transcripts analyzed: 1.9%
[1]; ID2, Hs766T
  Fold-change after TSA treatment: 5 fold
[1]; ING1, Hs766T
  Fold-change after TSA treatment: 11.83 fold
[1]; KLK12, Hs766T
  Fold-change after TSA treatment: 1.54 fold
[1]; MAGE1, Hs766T
  Fold-change after TSA treatment: 0.49 fold
[1]; MBD1, Hs766T
  Fold-change after TSA treatment: 7.94 fold
[1]; MMP1, Hs766T
  Fold-change after TSA treatment: 1.63 fold
[1]; NGFR, Hs766T
  Fold-change after TSA treatment: 4.11 fold
[1]; NOTCH3, Hs766T
  Fold-change after TSA treatment: 2.06 fold
[1]; P-glycoprotein (mdr1), Hs766T
  Fold-change after TSA treatment: 5.74 fold
[1]; SPANXA1, Hs766T
  Fold-change after TSA treatment: 15.92 fold
[1]; STC1, Hs766T
  Fold-change after TSA treatment: −1.31 fold
[1]; UCPH, Hs766T
  Fold-change after TSA treatment: −1.45 fold
[1]; ULBP2, Hs766T
  Fold-change after TSA treatment: 3.47 fold
[1]; WNT4, Hs766T
  Fold-change after TSA treatment: 0.81 fold
[1]; candidate tumor suppressor gene 21 protein (AF040708), Hs766T
  Fold-change after TSA treatment: 5.14 fold
[1]; connective tissue growth factor (M92934), Hs766T
  Fold-change after TSA treatment: 43 fold
[1]; hemoglobin, alpha 1 (HBAI), Hs766T
  Fold-change after TSA treatment: 1.55 fold
[1]; interleukin 8, Hs766T
  Fold-change after TSA treatment: −1.42 fold
[1]; period homolog 1 (PERI), Hs766T
  Fold-change after TSA treatment: 9.7 fold
[1]; prostate differentiation factor (AF003934), Hs766T
  Fold-change after TSA treatment: 3.17 fold
[1]; protease inhibitor 12 (neuroserpin) (SERPINU), Hs766T
  Fold-change after TSA treatment: 1.95 fold
[1]; synovial sarcoma, X breakpoint 1 (BC001003), Hs766T
  Fold-change after TSA treatment: 38.74 fold
[1]; tissue factor pathway inhibitor-2 (L27624), Hs766T
  Fold-change after TSA treatment: 120.09 fold
[2]; ADM, AsPC1
  Fold-change after TSA treatment: 7.6 fold
[2]; ANGPT1, AsPC1
  Fold-change after TSA treatment: −1.77 fold
[2]; AREG, AsPC1
  Fold-change after TSA treatment: 18.35 fold
[2]; ATF3, AsPC1
  Fold-change after TSA treatment: 8.73 fold
[2]; AsPC1
  transcripts with marked induction: 424 transcripts
  transcripts with marked induction, share of transcripts analyzed: 2.3%
[2]; BIK, AsPC1
  Fold-change after TSA treatment: 1.65 fold
[2]; CACNA1G, AsPC1
  Fold-change after TSA treatment: 9.95 fold
[2]; CAPN5, AsPC1
  Fold-change after TSA treatment: 1.73 fold
[2]; CDH8, AsPC1
  Fold-change after TSA treatment: 1.11 fold
[2]; CDKN1C, AsPC1
  Fold-change after TSA treatment: 10.62 fold
[2]; CGR11, AsPC1
  Fold-change after TSA treatment: −1.39 fold
[2]; CHES1, AsPC1
  Fold-change after TSA treatment: 1.87 fold
[2]; CHFR, AsPC1
  Fold-change after TSA treatment: −1.1 fold
[2]; CLDN15, AsPC1
  Fold-change after TSA treatment: −4.26 fold
[2]; EDR1, AsPC1
  Fold-change after TSA treatment: 4.56 fold
[2]; EGR4, AsPC1
  Fold-change after TSA treatment: 37.6 fold
[2]; EREG, AsPC1
  Fold-change after TSA treatment: 1.91 fold
[2]; GADD45B, AsPC1
  Fold-change after TSA treatment: 2.65 fold
[2]; GAGE1, AsPC1
  Fold-change after TSA treatment: 0.66 fold
[2]; GAGE2, AsPC1
  Fold-change after TSA treatment: −2.5 fold
[2]; GAGE3, AsPC1
  Fold-change after TSA treatment: −5.88 fold
[2]; GAGE4, AsPC1
  Fold-change after TSA treatment: −1.67 fold
[2]; GAGE6, AsPC1
  Fold-change after TSA treatment: −1.16 fold
[2]; GAGE7B, AsPC1
  Fold-change after TSA treatment: −4.88 fold
[2]; H1 historic family, member 2 (BC002649), AsPC1
  Fold-change after TSA treatment: 6.64 fold
[2]; HEP27, AsPC1
  Fold-change after TSA treatment: 413.37 fold
[2]; HMOX1, AsPC1
  Fold-change after TSA treatment: 1.73 fold
[2]; HPSE, AsPC1
  Fold-change after TSA treatment: 2.18 fold
[2]; ID2, AsPC1
  Fold-change after TSA treatment: 10.26 fold
[2]; ING1, AsPC1
  Fold-change after TSA treatment: 13.22 fold
[2]; KLK12, AsPC1
  Fold-change after TSA treatment: 7.63 fold
[2]; MAGE1, AsPC1
  Fold-change after TSA treatment: 1.05 fold
[2]; MBD1, AsPC1
  Fold-change after TSA treatment: 2.66 fold
[2]; MMP1, AsPC1
  Fold-change after TSA treatment: 9.05 fold
[2]; NGFR, AsPC1
  Fold-change after TSA treatment: 0.76 fold
[2]; NOTCH3, AsPC1
  Fold-change after TSA treatment: 7.93 fold
[2]; P-glycoprotein (mdr1), AsPC1
  Fold-change after TSA treatment: 1.08 fold
[2]; SPANXA1, AsPC1
  Fold-change after TSA treatment: −0.78 fold
[2]; STC1, AsPC1
  Fold-change after TSA treatment: 15.9 fold
[2]; UCPH, AsPC1
  Fold-change after TSA treatment: 5.48 fold
[2]; ULBP2, AsPC1
  Fold-change after TSA treatment: 73.47 fold
[2]; WNT4, AsPC1
  Fold-change after TSA treatment: 5.72 fold
[2]; candidate tumor suppressor gene 21 protein (AF040708), AsPC1
  Fold-change after TSA treatment: −1.47 fold
[2]; connective tissue growth factor (M92934), AsPC1
  Fold-change after TSA treatment: 17.38 fold
[2]; hemoglobin, alpha 1 (HBAI), AsPC1
  Fold-change after TSA treatment: 20.5 fold
[2]; interleukin 8, AsPC1
  Fold-change after TSA treatment: 44.67 fold
[2]; period homolog 1 (PERI), AsPC1
  Fold-change after TSA treatment: 20.29 fold
[2]; prostate differentiation factor (AF003934), AsPC1
  Fold-change after TSA treatment: 4.45 fold
[2]; protease inhibitor 12 (neuroserpin) (SERPINU), AsPC1
  Fold-change after TSA treatment: 8 fold
[2]; synovial sarcoma, X breakpoint 1 (BC001003), AsPC1
  Fold-change after TSA treatment: 1.74 fold
[2]; tissue factor pathway inhibitor-2 (L27624), AsPC1
  Fold-change after TSA treatment: 0.4 fold
[3]; ADM, Panc1
  Fold-change after TSA treatment: 3.22 fold
[3]; ANGPT1, Panc1
  Fold-change after TSA treatment: −1.13 fold
[3]; AREG, Panc1
  Fold-change after TSA treatment: 4.2 fold
[3]; ATF3, Panc1
  Fold-change after TSA treatment: 2.74 fold
[3]; BIK, Panc1
  Fold-change after TSA treatment: 5.02 fold
[3]; CACNA1G, Panc1
  Fold-change after TSA treatment: 10.14 fold
[3]; CAPN5, Panc1
  Fold-change after TSA treatment: 5.41 fold
[3]; CDH8, Panc1
  Fold-change after TSA treatment: 6.85 fold
[3]; CDKN1C, Panc1
  Fold-change after TSA treatment: 6.26 fold
[3]; CGR11, Panc1
  Fold-change after TSA treatment: 11.66 fold
[3]; CHES1, Panc1
  Fold-change after TSA treatment: 9.31 fold
[3]; CHFR, Panc1
  Fold-change after TSA treatment: −1.33 fold
[3]; CLDN15, Panc1
  Fold-change after TSA treatment: 8.69 fold
[3]; EDR1, Panc1
  Fold-change after TSA treatment: −2.06 fold
[3]; EGR4, Panc1
  Fold-change after TSA treatment: 6.44 fold
[3]; EREG, Panc1
  Fold-change after TSA treatment: −1.37 fold
[3]; GADD45B, Panc1
  Fold-change after TSA treatment: −1.09 fold
[3]; GAGE1, Panc1
  Fold-change after TSA treatment: 0.63 fold
[3]; GAGE2, Panc1
  Fold-change after TSA treatment: 1.4 fold
[3]; GAGE3, Panc1
  Fold-change after TSA treatment: 1.07 fold
[3]; GAGE4, Panc1
  Fold-change after TSA treatment: 2.29 fold
[3]; GAGE6, Panc1
  Fold-change after TSA treatment: 1.62 fold
[3]; GAGE7B, Panc1
  Fold-change after TSA treatment: 3.56 fold
[3]; HEP27, Panc1
  Fold-change after TSA treatment: 31.64 fold
[3]; HMOX1, Panc1
  Fold-change after TSA treatment: 1.21 fold
[3]; HPSE, Panc1
  Fold-change after TSA treatment: 3.03 fold
[3]; ID2, Panc1
  Fold-change after TSA treatment: 21.22 fold
[3]; ING1, Panc1
  Fold-change after TSA treatment: 1.5 fold
[3]; KLK12, Panc1
  Fold-change after TSA treatment: 2.13 fold
[3]; MAGE1, Panc1
  Fold-change after TSA treatment: 15.48 fold
[3]; MBD1, Panc1
  Fold-change after TSA treatment: −1.82 fold
[3]; MMP1, Panc1
  Fold-change after TSA treatment: −2.63 fold
[3]; NGFR, Panc1
  Fold-change after TSA treatment: 30.7 fold
[3]; NOTCH3, Panc1
  Fold-change after TSA treatment: 3.9 fold
[3]; P-glycoprotein (mdr1), Panc1
  Fold-change after TSA treatment: 3.69 fold
[3]; Panc1
  transcripts with marked induction: 459 transcripts
[3]; Panc1 (printed Panel)
  transcripts with marked induction, share of transcripts analyzed: 2.5%
[3]; SPANXA1, Panc1
  Fold-change after TSA treatment: 6.45 fold
[3]; STC1, Panc1
  Fold-change after TSA treatment: 5.63 fold
[3]; UCPH, Panc1
  Fold-change after TSA treatment: 2.05 fold
[3]; ULBP2, Panc1
  Fold-change after TSA treatment: 18.25 fold
[3]; WNT4, Panc1
  Fold-change after TSA treatment: 5.13 fold
[3]; candidate tumor suppressor gene 21 protein (AF040708), Panc1
  Fold-change after TSA treatment: 1.01 fold
[3]; connective tissue growth factor (M92934), Panc1
  Fold-change after TSA treatment: 7.69 fold
[3]; hemoglobin, alpha 1 (HBAI), Panc1
  Fold-change after TSA treatment: 4.55 fold
[3]; interleukin 8, Panc1
  Fold-change after TSA treatment: 3.01 fold
[3]; member 2 (BC002649), Panc1
  Fold-change after TSA treatment: 5.04 fold
[3]; period homolog 1 (PERI), Panc1
  Fold-change after TSA treatment: −3.83 fold
[3]; prostate differentiation factor (AF003934), Panc1
  Fold-change after TSA treatment: 4.05 fold
[3]; protease inhibitor 12 (neuroserpin) (SERPINU), Panc1
  Fold-change after TSA treatment: 11.7 fold
[3]; synovial sarcoma, X breakpoint 1 (BC001003), Panc1
  Fold-change after TSA treatment: 2.73 fold
[3]; tissue factor pathway inhibitor-2 (L27624), Panc1
  Fold-change after TSA treatment: 34.65 fold
